Data taken from patent US20190167568A1, “Transdermal Drug Delivery System and Method for Using Same” (SENJU USA, INC., priority 2016, published 2019).

Details: pH 8
Excerpt: In the present invention, the distribution coefficient (octanol/water distribution coefficient) may be adopted as the index of “water soluble” and “liposoluble” in the “water soluble steroid” and the “liposoluble steroid.” The distribution coefficient can be expressed in log D in consideration of the influence of pH, and water solubility is indicated by a minus value while liposolubility is indicated by a plus value.
The distribution coefficient can be obtained according to the method of JIS […] or JIS […].

Substance | distribution coefficient (log D)
dexamethasone metasulfobenzoate sodium | −2
prednisolone sodium phosphate | 0
